From the supplement of paper PMC4862054

Tests used:
Settings in all cases: incubation time: 72 h
MDA-MB-453 = test: normalised viability (% of control), CellTiter-Blue; higher = more viable cells (about 100 = DMSO control)
Procedure, shortened: (§1)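 After 72 h on compound-loaded 384-well plates, breast cancer cell lines received 2.5 µl CellTiter-Blue reagent for 2 h at 37 °C. Fluorescence at 560/590 nm was scaled per plate so that vehicle was 100 and a positive kill control was 0. The value stands for normalised viability at a single listed concentration of the series.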

MDA-MB-468 = test: as above
Procedure, shortened: as §1

BT-474 = test: as above
Procedure, shortened: as §1

Hs578T = test: as above
Procedure, shortened: as §1

CAL-85-1 = test: as above
Procedure, shortened: as §1

MDA-MB-231 = test: as above
Procedure, shortened: as §1

CAL-120 = test: drug sensitivity score (DSS), CellTiter-Blue viability (DSS (AUC-based score)); higher = stronger viability inhibition; extreme values may be limits of the assay
Procedure: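 DSRT with the CellTiter-Blue (resazurin reduction) viability readout, fluorescence 560/590 nm, 72 h incubation. Plates were normalised to DMSO and benzethonium chloride controls. DSS is computed from the area under the fitted dose-response curve (5 or 9 concentrations).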

SMILES | normalised viability (MDA-MB-453; 0.3 nM) | normalised viability (MDA-MB-453; 3 nM) | normalised viability (MDA-MB-453; 10 nM) | normalised viability (MDA-MB-468; 1 nM) | normalised viability (MDA-MB-468; 100 nM) | normalised viability (MDA-MB-468; 1000 nM) | normalised viability (BT-474; 1 nM) | normalised viability (BT-474; 100 nM) | normalised viability (BT-474; 1000 nM) | normalised viability (Hs578T; 1 nM) | normalised viability (Hs578T; 100 nM) | normalised viability (Hs578T; 1000 nM) | normalised viability (CAL-85-1; 0.3 nM) | normalised viability (CAL-85-1; 3 nM) | normalised viability (CAL-85-1; 10 nM) | normalised viability (MDA-MB-231; 1 nM) | normalised viability (MDA-MB-231; 100 nM) | normalised viability (MDA-MB-231; 1000 nM) | drug sensitivity score (CAL-120) | normalised viability (MDA-MB-453; 30 nM) | normalised viability (MDA-MB-453; 100 nM) | normalised viability (MDA-MB-468; 10 nM) | normalised viability (MDA-MB-468; 10000 nM) | normalised viability (BT-474; 10 nM) | normalised viability (BT-474; 10000 nM) | normalised viability (Hs578T; 10 nM) | normalised viability (Hs578T; 10000 nM) | normalised viability (CAL-85-1; 30 nM) | normalised viability (CAL-85-1; 100 nM) | normalised viability (MDA-MB-231; 10 nM) | normalised viability (MDA-MB-231; 10000 nM)
Cn1cnc2c(F)c(Nc3ccc(Br)cc3F)c(C(=O)NOCCO)cc21 [MEK-162] | 115% | 94% | 110% | 107% | 99.5% | 75.2% | 119% | 115% | 119% | 126% | 102% | 97% | 94.6% | 95.1% | 99.1% | 104% | 80.3% | 47% | 0 |  |  |  |  |  |  |  |  |  |  |  | 
CCOc1cc2ncc(C#N)c(Nc3ccc(OCc4ccccn4)c(Cl)c3)c2cc1NC(=O)/C=C/CN(C)C [Neratinib] | 106% | 99% | 88.3% | 110% | 114% | 106% | 105% | 120% | 91.2% | 98.6% | 88.5% | 93.9% | 92.7% | 100% | 97.1% | 114% | 131% | 135% | 0 |  |  |  |  |  |  |  |  |  |  |  | 
COc1ccc(C2=N[C@@H](c3ccc(Cl)cc3)[C@@H](c3ccc(Cl)cc3)N2C(=O)N2CCNC(=O)C2)c(OC(C)C)c1 [Nutlin-3] |  | 104% |  |  |  | 104% |  |  | 114% |  |  | 117% |  | 84.5% |  |  |  | 97.7% | 0 | 92% | 99.8% | 104% | 90.1% | 120% | 90.3% | 105% | 100% | 78.5% | 90.4% | 102% | 104%
COC1=CC(c2cc3ccccc3[nH]2)=N/C1=C\c1[nH]c(C)cc1C [Obatoclax] |  | 101% |  |  |  | 29.5% |  |  | 36.1% |  |  | 27.1% |  | 81.2% |  |  |  | 11.4% | 25.3 | 77.9% | 74.3% | 85% | 31.7% | 92.6% | 33.4% | 96.7% | 22.1% | 77.7% | 79.5% | 77% | 3.22%
CC(=O)O[C@H]1C(=O)[C@@]2(C)[C@H]([C@H](OC(=O)c3ccccc3)[C@]3(O)C[C@H](OC(=O)[C@H](O)[C@@H](NC(=O)c4ccccc4)c4ccccc4)C(C)=C1C3(C)C)[C@]1(OC(C)=O)CO[C@@H]1C[C@@H]2O [Paclitaxel] | 87.7% | 63.2% | 43.5% | 93.5% | 47.2% | 49.4% | 106% | 25.2% | 27.7% | 110% | 16.4% | 11.1% | 99.5% | 76.9% | 62.2% | 79.2% | 19.9% | 22.1% | 22.2 |  |  |  |  |  |  |  |  |  |  |  | 
CC(C)(C)c1cc(NC(=O)Nc2ccc(-c3cn4c(n3)sc3cc(OCCN5CCOCC5)ccc34)cc2)no1 [Quizartinib] | 118% | 110% | 105% | 108% | 108% | 86.1% | 95.2% | 104% | 96.6% | 67.6% | 119% | 93.2% | 96.9% | 97.8% | 105% | 104% | 118% | 89.7% | 0 |  |  |  |  |  |  |  |  |  |  |  | 
COc1cc(Nc2ncc(F)c(Nc3ccc4c(n3)NC(=O)C(C)(C)O4)n2)cc(OC)c1OC [R406] |  | 119% |  |  |  | 87.3% |  |  | 111% |  |  | 105% |  | 93.8% |  |  |  | 77.2% | 0 | 102% | 108% | 104% | 101% | 133% | 130% | 115% | 88.4% | 87.8% | 97.5% | 95.7% | 52.5%
O=C(c1ccc(OCCN2CCCCC2)cc1)c1c(-c2ccc(O)cc2)sc2cc(O)ccc12 [Raloxifene] |  | 106% |  |  |  | 106% |  |  | 103% |  |  | 102% |  | 100% |  |  |  | 89.3% | 0 | 97.5% | 92.4% | 98.6% | 78.2% | 100% | 113% | 112% | 92.8% | 94.5% | 98% | 85.3% | 102%
Cn1c(=O)c(F)c(Nc2ccc(I)cc2F)c2c(=O)n(C[C@@H](O)CO)cnc21 [TAK-733] | 114% | 104% | 115% | 99.4% | 84.6% | 95% | 123% | 121% | 131% | 108% | 88.3% | 77.5% | 93.5% | 97.8% | 96.1% | 89.2% | 36.1% | 33.8% | 4.61 |  |  |  |  |  |  |  |  |  |  |  | 
CCS(=O)(=O)c1cccc(-c2cc(C(=O)NC3CCN(C)CC3)c(C)c3[nH]c4ncc(C)cc4c23)c1 [TAK-901] | 102% | 111% | 83.5% | 112% | 33.1% | 63.6% | 131% | 107% | 78.6% | 124% | 78% | 40.5% | 89.9% | 86.3% | 91.2% | 99.4% | 64.9% | 20.6% | 10 |  |  |  |  |  |  |  |  |  |  |  | 
c1ccc(C2CN3CCSC3=N2)cc1 (stereo not drawn) [Tetramisole] |  | 93.6% |  |  |  | 106% |  |  | 137% |  |  | 95.5% |  | 104% |  |  |  | 91.7% | 0 | 104% | 98.5% | 101% | 120% | 111% | 107% | 90.2% | 107% | 92.8% | 99.4% | 96.5% | 104%
CCCC(CCC)C(=O)O [Valproic acid] |  | 112% |  |  |  | 117% |  |  | 124% |  |  | 140% |  | 86.4% |  |  |  | 101% | 0 | 102% | 109% | 105% | 121% | 113% | 121% | 110% | 127% | 84.7% | 96.6% | 109% | 116%
